Like-named read-outs stand apart in the source and are kept apart here.
Tests used:
[1] = cited from earlier work; for within-subject variability (coefficient of variation) of Cmax: ref unpublished previous study results

Row | SMILES | time to reach Cmax ([1]; extended-release formulations) [h] | Tmax (fed state (high fat meal), given as loose combination gemigliptin 50 mg + metformin XR 1,000 mg, n = 30, median [minimum–maximum]) | Tmax (human, plasma, oral) [h] | Tmax ([1]; 50 mg) | terminal half-life (t1/2) [1] [h] | time at which maximum concentration (Cmax) was attained [1] [h] | pharmacokinetic dose linearity ([1]; dose range of 50–400 mg) | within-subject variability (coefficient of variation) of Cmax ([1]; fasted state, 2016) | within-subject variability (coefficient of variation) of Cmax ([1]; fed state, 2015) | AUCinf geometric mean ratio (90% CI) (fed state, ratio of the FDC to the loose combination)
1 | CN(C)C(=N)N=C(N)N [Metformin] | 4 to 8 | 6.00 [4.00–8.03] h | 6.04 | – | – | – | – | – | – | –
2 | N[C@@H](CC(=O)N1CCc2c(nc(C(F)(F)F)nc2C(F)(F)F)C1)CN1CC(F)(F)CCC1=O [Gemigliptin] | – | – | – | approximately 2 hours | 17.1 | 2 | linearity | approximately 23.4% | approximately 20.4% | 0.9940 (0.9691–1.0195)

Source: article PMC7136079 (Translational and Clinical Pharmacology, 2020)
